Laboratory results taken from PubChem BioAssay AID488890 (Southern Research Specialized Biocontainment Screening …, 2010).
Inconclusive results are not listed. Calls of active or inactive are those of the source. How the calls were made is not given here.

Each compound was assayed on Mycobacterium tuberculosis non-replicating, growth inhibition (assay: growth inhibition of non-replicating M. tuberculosis (AID 488890)).
Work on `O=C(COc1ccc2ccccc2c1)Nc1ccncc1` yielded an IC50 of 3.17 µM. In the case of `CN(C)CCCNc1cc(C(C)(C)C)nc2c(-c3ccc(Cl)cc3)cnn12`, the IC50 is reported as 5.24 µM. Compound `NC1=NC[C@H](Cc2ccccc2)N1CCCCC1CCCCC1` has an IC50 of 7.48 µM. `CC(=O)c1ccc(OC(=O)c2ccc(-n3nc(C)cc3C)cc2)cc1` showed an IC50 of 2.45 µM. `COc1ccc(OC(=O)CCc2c[nH]c3ccccc23)cc1` was tested, and the IC50 was 3.37 µM. `Cc1ccc(NCCC(=O)c2cccs2)cc1Cl` gave an IC50 of 3.56 µM. `O=C(COC(=O)c1ccccc1Cl)NCCC1=CCCCC1` was tested, and the IC50 was 14.1 µM (inactive). For `CC(=O)N(c1nnc(-c2ccc(C)cc2)s1)C1CCCC1`, the IC50 was 26.2 µM (inactive). For `O=C(CNC(=O)c1ccccc1F)OCc1csc(-c2ccccc2)n1`, the IC50 was 15.2 µM (inactive). With `Cc1cc(/C=N\NC(=O)c2cccs2)c(C)n1-c1ccc2ncccc2c1` the IC50 was > 25 µM (inactive). With `COC(=O)c1cc2c(ccc3ccccc32)oc1=O` the IC50 was 6.24 µM. `Cc1onc(-c2c(F)cccc2Cl)c1C(=O)O/N=C(\N)c1ccc([N+](=O)[O-])o1` showed an IC50 of 5.96 µM. `O=C(N/N=C/c1cc(Br)cc(Br)c1O)c1cccc(N2CCCC2=O)c1` was tested, and the IC50 was 4.24 µM. With `O=C(Nc1nnc(-c2ccc(Cl)cc2)o1)c1cccc(N2C(=O)CCC2=O)c1` the IC50 was 22.3 µM (inactive). For `CCc1c(C)c2ccc(OCC(=O)OC)cc2oc1=O`, the IC50 was 9.03 µM. `CCOC(=O)C(=CNNc1cccc(Cl)c1)C(=O)OCC` was tested, and the IC50 was 18.7 µM (inactive). `Cc1ccc(/C=C2/C(=O)NC(=O)N(CCc3ccc(F)cc3)C2=O)s1` was tested, and the IC50 was 16.7 µM (inactive). `CCCCOC(=O)Cn1c(-c2ccccc2)nc2ccccc2c1=O` was tested, and the IC50 was 11.3 µM (inactive). Work on `CC1(C)OC(c2ccccc2)=C/C(=C\C=N\NC(=O)c2ccncc2)O1` yielded an IC50 of 1.75 µM. With `CC/C(=C\c1oc2cc3ccccc3cc2[n+]1CC)Nc1ccccc1` the IC50 was 3.14 µM. `CN(C)CCC(=O)N1c2ccccc2Sc2ccc(C(F)(F)F)cc21` was tested, and the IC50 was 17.9 µM (inactive). With `C=CCn1c(O)c(C(C)=Nc2ccc(C(=O)OCC)cc2)c(=O)[nH]c1=O` the IC50 was 7.05 µM. For `Cc1cccc(NCc2ccc([N+](=O)[O-])s2)c1`, the IC50 was 22.2 µM (inactive). Work on `CCOC(=O)c1ccc(COC(=O)c2ccc(-c3nnc(-c4ccccc4)o3)cc2)o1` yielded an IC50 of 6.43 µM. In the case of `CCN1CCN(c2ccc(S(=O)(=O)N3CCCCC3)cc2NC(=O)c2ccc([N+](=O)[O-])o2)CC1`, the IC50 is reported as 12.6 µM (inactive). `CN1C(=O)CC(N2CCC(c3nc4ccccc4s3)CC2)C1=O` (stereo unspecified) was tested, and the IC50 was 32.6 µM (inactive). `CSc1nc(=S)cc(C)[nH]1` showed an IC50 of 6.23 µM. `Cc1ccccc1-n1c(C)cc(/C=N/NC(=O)c2ccncc2)c1C` was tested, and the IC50 was 0.65 µM. With `COC(=O)COc1ccc2c(-c3ccc(OC)cc3)cc(=O)oc2c1` the IC50 was 0.78 µM. `COc1cccc(CN2CCC(N(CCc3ccccc3)Cc3ccccc3)CC2)c1OC` was tested, and the IC50 was 14.3 µM (inactive). In the case of `CCc1nnc(N/N=C/c2ccc(N3CCC(C)CC3)c([N+](=O)[O-])c2)n1N`, the IC50 is reported as 3.83 µM. `CCOC(=O)c1csc(COc2ccccc2Cl)n1` showed an IC50 of 1.57 µM. `N#Cc1nc(-c2ccc(OCc3ccccc3)cc2)oc1NCCCn1ccnc1` was tested, and the IC50 was 15.4 µM (inactive). Compound `CC1CCCN(CCC(=O)c2ccc(Br)cc2)C1` (stereo unspecified) has an IC50 of 1.16 µM. In the case of `COc1ccc(OCC(=O)NNC(=O)c2ccccn2)cc1`, the IC50 is reported as 11.3 µM (inactive). In the case of `Nc1ccc(Br)c2cccnc12`, the IC50 is reported as 15.8 µM (inactive). `O=C(CNC(=O)c1cccc(F)c1)N/N=C/c1ccc([N+](=O)[O-])s1` was tested, and the IC50 was 10.6 µM (inactive). In the case of `O=C(Nc1cccc(Cl)c1)Nc1nnc(-c2ccncc2)s1`, the IC50 is reported as 2.69 µM. `N=c1n(Cc2ccc(Cl)cc2)c2ccccc2n1CC(O)COc1ccccc1` (stereo unspecified) was tested, and the IC50 was 13.5 µM (inactive). `CSc1ccc(NC(=O)Nc2cccn(Cc3ccccc3)c2=O)cc1` was tested, and the IC50 was 19.4 µM (inactive). Compound `CN(C)CC(C(=O)c1ccccc1)c1ccccc1` (stereo unspecified) has an IC50 of 2.83 µM. Compound `C=CCn1c(O)c(C2=c3ccccc3=NC2=O)c2ccccc21` has an IC50 of 2.68 µM. For `CCCOc1ccc(C(=O)C(CN2CCCC2)c2ccccc2)cc1` (stereo unspecified), the IC50 was 3.82 µM. Compound `CC(C)(C)NC(=O)COC(=O)c1snc(C(=O)NC2CCCCC2)c1N` has an IC50 of 1.64 µM. With `O=C(N/N=C/C=C/c1ccco1)c1ccncc1` the IC50 was 1.19 µM. For `c1coc(CNc2nc(N3CCCCC3)nc3ccccc23)c1`, the IC50 was 2.9 µM. Compound `O=C(N/N=C(\c1ccccc1)c1ccccn1)c1cccc([N+](=O)[O-])c1` has an IC50 of 1.93 µM. `Cc1ccc(C)c(-c2nnc(NC(=O)COc3ccccc3)o2)c1` was tested, and the IC50 was 1.29 µM. With `O=C(Nc1nnc(-c2cc(Cl)ccc2Cl)o1)C1=COCCO1` the IC50 was 22 µM (inactive). With `CC(C)(C)C(=O)COc1ccccc1[N+](=O)[O-]` the IC50 was 17.6 µM (inactive). For `CCC(C)[C@H]1CN=C(N)N1CCc1cccc2ccccc12` (stereo partly specified), the IC50 was 12.5 µM (inactive). `Cc1ccnc(NS(=O)(=O)c2ccc(NC(=O)c3ccc([N+](=O)[O-])s3)cc2)n1` showed an IC50 of 8.3 µM. `COc1ccc(Cc2nnc(-c3ccccc3)o2)cc1` showed an IC50 of 0.19 µM. With `CCOC(=O)CCSc1n[nH]c(=S)s1` the IC50 was 11.7 µM (inactive). `COc1cc(OC)c2c(OC)cccc2n1` showed an IC50 of 6.63 µM. For `CCn1c(NC(=O)c2ccccc2)nc2ccccc21`, the IC50 was 4.44 µM. For `COc1ccc(-c2[nH]ncc2CN2CCCCCCC2)c(OC)c1`, the IC50 was 11 µM (inactive). `O=C(c1ccc([N+](=O)[O-])s1)N1CCN(c2cccc(Cl)c2)CC1` gave an IC50 of 0.38 µM. In the case of `COc1ccc(C(=O)Nc2ccccc2C(=O)N/N=C/c2ccccn2)cc1OC`, the IC50 is reported as 24.7 µM (inactive). In the case of `CC(=O)CCC1CC(c2ccc(Cl)cc2)=NO1` (stereo unspecified), the IC50 is reported as 2.39 µM. For `COc1ccc(C(=O)Oc2c(CN3CCOCC3)cc(Cl)c3cccnc23)cc1OC`, the IC50 was 15.3 µM (inactive). `Cc1ccc(OCCCCn2ccnc2)c(Cl)c1` was tested, and the IC50 was 8.23 µM. `Cc1ccc(NC(=O)CCSc2nnc(Cc3ccccc3)o2)cc1` gave an IC50 of 2.05 µM. With `CN1CCN(/N=C/c2ccc(-c3ccc([N+](=O)[O-])cc3Cl)o2)CC1` the IC50 was 26.9 µM (inactive). `CN(C)CCCN(C(=O)CCc1ccccc1)c1nc2ccc(Cl)cc2s1` was tested, and the IC50 was 12.7 µM (inactive). For `Cc1cc(C)cc(NC(=O)COC(=O)CC2CCCC2)c1`, the IC50 was 21.5 µM (inactive). `COc1ccc(N=N/C(=C\O)C(=O)c2cccs2)cc1` was tested, and the IC50 was 9.69 µM. `O=C(Nc1cc(C(F)(F)F)ccc1-n1cncn1)c1ccc([N+](=O)[O-])o1` was tested, and the IC50 was 17.9 µM (inactive). `O=C(OCc1ccc([N+](=O)[O-])cc1)c1ccc2ccccc2n1` showed an IC50 of 4.44 µM. For `CC1C/C(=N/N2C(=O)CSC2=S)CC(C)(C)C1` (stereo unspecified), the IC50 was 30.6 µM (inactive). Work on `COc1ccc(Nc2ccccc2N)cc1` yielded an IC50 of 2.72 µM. `CCOC(=O)C(=O)NC12CC3CC(CC(C3)C1)C2` was tested, and the IC50 was 6.5 µM. With `COC(=O)c1cc(/C=C/c2ccccc2)on1` the IC50 was 2.18 µM. For `CC(CCc1ccccc1)NC(=O)COC(=O)c1cccs1` (stereo unspecified), the IC50 was 13.4 µM (inactive). For `O=C(Nc1nnc(-c2ccc(Cl)cc2)o1)c1ccccc1Br`, the IC50 was 0.58 µM. For `Cc1ccc(OC(=O)CCS(=O)(=O)c2ccc(C)cc2)cc1`, the IC50 was 11.8 µM (inactive). Work on `Cc1cc(Br)ccc1OCC(=O)NNC(=O)c1cnccn1` yielded an IC50 of 6.09 µM. With `CCOc1ccc(OCc2ccc(C(=O)OCc3ccccn3)o2)cc1` the IC50 was 8.49 µM. `C/C(Cn1nnc([N+](=O)[O-])n1)=N\NC(=O)c1ccncc1` gave an IC50 of 1.63 µM. `CC(=O)Nc1ccc(OC(=O)c2ccc(Br)c([N+](=O)[O-])c2)cc1` showed an IC50 of 8.96 µM. Work on `Nc1ccccc1Nc1ccccc1` yielded an IC50 of 1.81 µM. For `O=C(OCc1ccccn1)c1ccc(COc2ccccc2Cl)o1`, the IC50 was 3.14 µM. For `O=[N+]([O-])c1ccc2nc(-c3ccccn3)[nH]c2c1`, the IC50 was 18.3 µM (inactive). With `Cc1[nH]nc2c1C(c1ccc(OC(=O)c3ccco3)cc1)C(C#N)=C(N)O2` (stereo unspecified) the IC50 was 6.69 µM. With `Cc1cccc(OCC(=O)NNC(=O)c2cc3ccccc3oc2=O)c1` the IC50 was 6.13 µM. With `Cc1ccc(N=N/C(=C\O)C(=O)c2ccncc2)cc1` the IC50 was 10.1 µM (inactive). For `COc1ccc(C(C)NC(=O)CCc2ccccc2)cc1` (stereo unspecified), the IC50 was 34.9 µM (inactive). In the case of `CC(C)c1nnc(NC(=O)c2sc3ccccc3c2Cl)s1`, the IC50 is reported as 9.84 µM. In the case of `O=[N+]([O-])c1cc(N=Nc2ccc3ccccc3c2)ccc1O`, the IC50 is reported as 10.2 µM (inactive). `Cn1c(=O)c(Oc2ccc(F)cc2)c(O)c2ccccc21` gave an IC50 of 8.27 µM. Compound `CCCCCn1c(=O)c(C(=O)Nc2nc3ccccc3[nH]2)c(O)c2ccccc21` has an IC50 of 1.9 µM. With `Cc1cc(=O)n2cccc(O)c2n1` the IC50 was 6.1 µM. `O=c1c(O)c(-c2cccs2)oc2ccc(Cl)cc12` showed an IC50 of 1.08 µM. For `Cc1cc(=O)[nH]c(-n2nc(C)cc2C)n1`, the IC50 was 4.88 µM. `COc1cc(CNCCNC(=O)c2nonc2N)ccc1OCc1ccc(Cl)cc1` was tested, and the IC50 was 12.2 µM (inactive). With `O=C1c2cccc3cc([N+](=O)[O-])cc(c23)C(=O)N1c1ccccc1O` the IC50 was 15.1 µM (inactive). Compound `Cc1cc(C)n2nc(S(=O)(=O)Nc3c(Cl)cccc3Cl)nc2n1` has an IC50 of 3.15 µM. `C=CCNCC(=O)N1N=C(c2ccc3ccccc3c2)CC1c1ccc(OC)cc1` (stereo unspecified) was tested, and the IC50 was 20.6 µM (inactive). `C/C(=C\C(=O)c1ccc(Br)cc1)NNC(=O)c1ccccc1` gave an IC50 of 0.38 µM. `O=C(CC1CCCCC1)NCc1ccccc1` was tested, and the IC50 was 5.92 µM. `CCOc1ccc(-c2nc3ccccc3c(=O)o2)cc1` gave an IC50 of 6.27 µM. In the case of `O=C(c1cc2ccccc2o1)N1CCN(Cc2ccccc2)CC1`, the IC50 is reported as 7.64 µM. `Cc1cc(OCC(=O)Nc2ccncc2)ccc1Br` showed an IC50 of 3.47 µM. With `CC1=NN(C(=O)c2cc(C)nn2C)C(O)(C(F)(F)F)C1` (stereo unspecified) the IC50 was 7.51 µM. In the case of `CCCCOC(=O)c1ccc(NC(=O)C2CCCO2)cc1` (stereo unspecified), the IC50 is reported as 10 µM (inactive). In the case of `S=C(Nc1ccc2c(c1)OCO2)Nc1ccc2c(c1)OCO2`, the IC50 is reported as 12.8 µM (inactive). `CN(C)CCCN(C(=O)CCc1ccccc1)c1nc2ccc(Br)cc2s1` was tested, and the IC50 was 14.2 µM (inactive). For `COc1ccc(C(O)CNc2ccc(C)cc2)cc1` (stereo unspecified), the IC50 was 43.2 µM (inactive). In the case of `CCC1(O)CC(c2ccccc2)=NN1C(=O)c1ccccc1F` (stereo unspecified), the IC50 is reported as 3.45 µM. `COc1ccc(/C=N/NC(=O)c2ccncc2)cc1CN1CCOCC1` gave an IC50 of 4.37 µM. In the case of `CCOC(=O)NC(=O)COC(=O)CCCSc1nc2ccccc2s1`, the IC50 is reported as 10 µM (inactive). Compound `COc1cc(CNCCO)cc(Cl)c1OCc1ccc(Cl)cc1Cl` has an IC50 of 6.67 µM. With `Nc1nnc(Sc2ncccc2[N+](=O)[O-])s1` the IC50 was 17 µM (inactive). For `NC(=O)C1CCN(C2CC(=O)NC2=O)CC1` (stereo unspecified), the IC50 was 15.7 µM (inactive). `CC(C)c1ccc(C2=C(O)c3ccccc3C(=O)C2=O)cc1` gave an IC50 of 3.7 µM. `CCOc1ccc(-c2ccc(C=O)o2)c([N+](=O)[O-])c1` was tested, and the IC50 was 19 µM (inactive).
